Where two headings read alike, the source gives them in different places.
What was measured:
rats = experiment: Behavioral nociceptive testing, paw-withdrawal test (PWD), heat pain threshold; assay type: in vivo, rat; conditions: for antinociception, potency and dose dependence: s.c., 0.3-10 mg/kg
Protocol: The paw-withdrawal test (PWD) was used to measure the heat pain threshold after the treatments. A detailed description of this model was published by Hargreaves et al. (Hargreaves, K.; Dubner, R.; Brown, F.; Flores, C.; Joris, J. Pain; 32, 77 1988). Briefly, rats were placed on a glass surface in a plastic chamber and were allowed to acclimatize to their environment for 15-30 min before testing. The baseline hind paw-withdrawal latencies (baseline values at 0 min determined two times) were then obtained. A heat stimulus was directed onto the plantar surface of each hind paw and the intensity of the thermal stimulus was adjusted to derive an average baseline latency of approximately 10 s (cut-off time 20 s). Then the animals were treated subcutaneously with different doses of ligands (0.3-10 mg/kg). The nociceptive threshold was determined at 15-min intervals for 120 min.
Data are presented as means±SEM. The mean of the two sides and the mean of two time points (15-30; 45-60; 75-90 and […]) were evaluated. The results were analyzed using a two-way ANOVA (ANalysis Of VAriances) (factors: treatment and time with repeated measurements). Subsequent analysis was performed using Fisher-LSD test. A p-value less than 0.05 was considered significant. Data were analyzed using […] 7.1. software (Statsoft Inc., Tulsa, Okla.).

μ-opioid receptors = biological target: T1, μ-opioid receptors (Rattus norvegicus, UniProt P33535); experiment: Receptor binding assay, [3H]DAMGO displacement in rat brain membranes; conditions: for Ki^δ/Ki^μ: selectivity ratio δ/μ
T1 construct: A crude membrane fraction was prepared from Wistar rat brains and spinal cords; from tissue; host or cells: Wistar rat brain (without cerebellum), crude membrane fraction
T1 sequence (P33535 whole entry): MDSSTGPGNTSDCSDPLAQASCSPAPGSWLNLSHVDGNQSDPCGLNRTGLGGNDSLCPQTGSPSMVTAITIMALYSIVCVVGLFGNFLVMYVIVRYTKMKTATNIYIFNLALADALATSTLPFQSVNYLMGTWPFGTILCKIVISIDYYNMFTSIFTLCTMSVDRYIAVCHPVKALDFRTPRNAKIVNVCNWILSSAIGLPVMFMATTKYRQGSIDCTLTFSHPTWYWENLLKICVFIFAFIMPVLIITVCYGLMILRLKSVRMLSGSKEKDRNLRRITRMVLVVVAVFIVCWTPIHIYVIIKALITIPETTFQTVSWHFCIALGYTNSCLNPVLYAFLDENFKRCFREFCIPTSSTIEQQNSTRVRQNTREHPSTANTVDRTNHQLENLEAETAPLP

δ-opioid receptors = biological target: T2, δ-opioid receptors (Rattus norvegicus, UniProt P33533); experiment: Receptor binding assay, [3H]Ile5,6-deltorphin-2 displacement in rat brain membranes
T2 construct: A crude membrane fraction was prepared from Wistar rat brains and spinal cords; from tissue; host or cells: Wistar rat brain (without cerebellum), crude membrane fraction
T2 sequence (P33533 whole entry): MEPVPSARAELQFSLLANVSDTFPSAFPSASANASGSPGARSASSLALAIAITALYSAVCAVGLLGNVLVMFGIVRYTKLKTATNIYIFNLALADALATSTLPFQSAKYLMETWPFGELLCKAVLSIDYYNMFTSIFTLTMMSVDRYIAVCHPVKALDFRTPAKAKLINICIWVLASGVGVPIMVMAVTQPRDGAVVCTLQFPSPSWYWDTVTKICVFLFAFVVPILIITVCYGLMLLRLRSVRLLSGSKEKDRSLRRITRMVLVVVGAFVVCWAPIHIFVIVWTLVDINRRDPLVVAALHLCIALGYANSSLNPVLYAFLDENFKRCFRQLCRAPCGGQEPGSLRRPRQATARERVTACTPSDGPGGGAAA

[1] = 10 mg/kg s.c., 0 min (baseline)

| Molecule | Time course of the antinociceptive effects (paw-withdrawal latency) (rats; 3 mg/kg s.c., 0 min (baseline)) [s] | Time course of the antinociceptive effects (paw-withdrawal latency) (rats; 3 mg/kg s.c., 30 min) [s] | Time course of the antinociceptive effects (paw-withdrawal latency) (rats; 3 mg/kg s.c., 60 min) [s] | Time course of the antinociceptive effects (paw-withdrawal latency) (rats; 3 mg/kg s.c., 90 min) [s] | Time course of the antinociceptive effects (paw-withdrawal latency) (rats; 3 mg/kg s.c., 120 min) [s] | Time course of the antinociceptive effects (paw-withdrawal latency) (rats; [1]) [s] | Time course of the antinociceptive effects (paw-withdrawal latency) (rats; 10 mg/kg s.c., 30 min) [s] | Time course of the antinociceptive effects (paw-withdrawal latency) (rats; 10 mg/kg s.c., 60 min) [s] | Time course of the antinociceptive effects (paw-withdrawal latency) (rats; 10 mg/kg s.c., 90 min) [s] | Time course of the antinociceptive effects (paw-withdrawal latency) (rats; 10 mg/kg s.c., 120 min) [s] | duration of antinociceptive effect compared to other drugs (rats; 3 mg/kg s.c., in words) | antinociception, potency and dose dependence (rats; in words) | Ki (μ-opioid receptors) [nM] | Ki (δ-opioid receptors) [nM] | antinociceptive effect compared to non-deuterated analogues (rats; 10 mg/kg s.c., in words) | Ki^δ/Ki^μ (μ-opioid receptors) | also measured |
| --- | --- | --- | --- | --- | --- | --- | --- | --- | --- | --- | --- | --- | --- | --- | --- | --- | --- |
| CN1CC[C@]23c4c5ccc(O)c4O[C@H]2[C@@H](O)CC[C@H]3[C@H]1C5 [Dihydromorphine] | 10.2 | 13.1 | 13.9 | 14.1 | 13.3 | 10.1 | 19.4 | 20.6 | 15.3 | 14.1 |  |  |  |  |  |  |  |
| [2H][C@@H]1[C@H]([2H])[C@H]2[C@H]3Cc4ccc(O)c5c4[C@@]2(CCN3C)[C@@H](O5)[C@H]1O [Example 1, (5α,6α,7β,8β)-3,6-dihydroxy-4,5-epoxy-17-methyl-(7,8-^2H2)-morphinan] | 10.1 | 14.1 | 14.9 | 14.9 | 14.1 | 9.8 | 21.3 | 22.1 | 16.8 | 16.1 | more prolonged effects compared to other drugs | more potent |  |  |  |  | antinociceptive effect at 3 mg/kg, efficacy compared to morphine (rats; 3 mg/kg s.c., in words): more effective than morphine |
| [2H][C@@H]1[C@H]([2H])[C@H]2[C@H]3Cc4ccc(OC)c5c4[C@@]2(CCN3C)[C@@H](O5)[C@H]1O [Example 2, (5α,6α,7β,8β)-4,5-epoxy-6-hydroxy-3-methoxy-17-methyl-(7,8-^2H2)-morphinan] | 9.9 | 12.1 | 11.9 | 11.7 | 11.8 | 10.1 | 14.2 | 14.8 | 14.9 | 14.1 |  | lower potency | 34.1 ± 1.08 | > 10000 | increased and prolonged the effect |  | affinity to μ-opioid receptors compared to the corresponding hydrogenated derivative (μ-opioid receptors; in words): higher affinity to μ-opioid receptors than the corresponding hydrogenated derivatives |
| COc1ccc2c3c1O[C@H]1[C@@H](O)CC[C@H]4[C@@H](C2)N(C)CC[C@@]341 [Dihydrocodeine] | 10.1 | 11.1 | 10.7 | 10.5 | 10.3 | 9.9 | 13.4 | 13.6 | 10.9 | 9.8 |  |  | 122 ± 15 | > 10000 |  |  |  |
| [2H][C@@H]1[C@H]([2H])[C@H]2[C@H]3Cc4ccc(OC(C)=O)c5c4[C@@]2(CCN3C)[C@@H](O5)[C@H]1OC(C)=O [Example 4, (5α,6α,7β,8β)-3,6-diacetoxy-4,5-epoxy-17-methyl-(7,8-^2H2)-morphinan] | 9.7 | 19.7 | 17.9 | 14.3 | 11.4 |  |  |  |  |  | more prolonged effects compared to other drugs | more potent | 2.89 ± 0.7 | 211 ± 24 |  | 73 | affinity to μ-opioid receptors compared to morphine (μ-opioid receptors; in words): higher affinity to μ-opioid receptors than the morphine |
| (5α,6α,7β,8β)-4,5-epoxy-3-ethoxy-6-hydroxy-17-methyl-(7,8-^2H2)-morphinan [Example 3] | 10.0 | 12.2 | 11.6 | 11.4 | 11.1 | 10.1 | 12.1 | 13.1 | 12.9 | 11.1 |  | lower potency |  |  | increased and prolonged the effect | 30 | Ki (μ-opioid receptors; [3H]DAMGO, rat brain membranes, read-out: Ki^μ): 205 ± 63.1 nM; Ki (δ-opioid receptors; [3H]Ile5,6-deltorphin-2, rat brain membranes, read-out: Ki^δ): 6120 ± 845 nM |

— patent publication US9447108B2 (SZEGEDI TUDOMÁNYEGYETEM, priority 2013, dated 2016)
